Experimental data from paper PMC8070018, “Human Lanosterol 14-Alpha Demethylase (CYP51A1) Is a Putative Target for Natural Flavonoid Luteolin 7,3′-Disulfate” (Molecules, 2021).
Like-named read-outs stand apart in the source and are kept apart here.

Key:
human CYP51A1 [1] = target: T1, human CYP51A1 (Homo sapiens, UniProt Q16850); conditions: cited from earlier work; for affinity: direct coordination with heme iron; for Kd: read-out: Kdapp
T1 construct: made in house
T1 sequence (Q16850 1-509): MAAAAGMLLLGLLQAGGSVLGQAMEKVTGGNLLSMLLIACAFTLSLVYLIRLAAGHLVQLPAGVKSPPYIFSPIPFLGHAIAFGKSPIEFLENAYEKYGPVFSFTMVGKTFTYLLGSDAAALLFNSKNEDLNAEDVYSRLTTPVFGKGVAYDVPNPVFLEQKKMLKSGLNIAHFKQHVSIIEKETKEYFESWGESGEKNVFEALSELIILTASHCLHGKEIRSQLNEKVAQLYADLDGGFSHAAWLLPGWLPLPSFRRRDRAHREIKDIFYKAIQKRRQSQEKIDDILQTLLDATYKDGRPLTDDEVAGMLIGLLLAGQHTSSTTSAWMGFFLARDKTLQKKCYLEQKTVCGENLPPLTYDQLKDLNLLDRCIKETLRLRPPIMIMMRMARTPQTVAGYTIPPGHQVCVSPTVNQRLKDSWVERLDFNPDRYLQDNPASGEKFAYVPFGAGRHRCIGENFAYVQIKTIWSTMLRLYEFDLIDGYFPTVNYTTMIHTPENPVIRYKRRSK

human CYP51A1 [2] = target: T1, human CYP51A1; test: Surface plasmon resonance binding to immobilized CYP51A1; conditions: SPR; for Kd: immobilized CYP51A1, read-out: Kd (equilibrium dissociation constant)
human CYP51A1 [3] = target: T1, human CYP51A1; test: Spectrophotometric titration (difference spectra) of CYP51A1 in the presence of lanosterol; type: binding; conditions: for Kd: spectral titration, CYP51A1 4 μM, lanosterol 5 μM, pH 7.4, room temperature, read-out: apparent dissociation constant (Kdapp); for spectral response in the difference spectrum of CYP51A1: titration in the presence of lanosterol, baicalein and luteolin 7,3′-disulfate up to 30 μM, luteolin up to 15 μM
Description: Spectrophotometric titration was used to determine the apparent dissociation constants (Kdapp) for the enzyme–ligand complexes. The spectral measurements were performed on Cary Series UV-Vis-NIR (Agilent Technologies, Santa Clara, CA, USA) spectrophotometer using tandem quartz cuvettes (1 cm optical path) to exclude the absorption of ligands. Natural substrate, lanosterol, at final concentration 5 μM was added before the titration to the CYP51A1 (final concentration 4 μM) in 50 mM potassium phosphate buffer, pH 7.4. […] The difference spectra were recorded after each addition of ligand at room temperature in the range of 350–500 nm. The apparent dissociation constants were determined by plotting the absorbance changes in the difference spectra versus the concentration of free ligand and evaluated by using the Hill equation (OriginPro 8.1 statistical data analysis package): Aobs=Amax×(S×n/Kdapp×n+S×n), where Aobs—the observed change in the absorption, Amax—the absorbance change at ligand saturation, Kdapp—the apparent dissociation constant for the ligand–enzyme complex, S—the ligand concentration, n—a Hill coefficient.

CYP1A, CYP2B and CYP3A4 = conditions: range over CYP1A; cited from earlier work
CYP2C19 = conditions: cited from earlier work
CYP3A4 = conditions: cited from earlier work
CYP2C9 = tested on: CYP2C9; parameters: method as in PMID 32661014; conditions: comparable to positive control sulfaphenazole; cited from earlier work
[4] = target: T2, human CYP51A1 (lanosterol 14α-demethylase) (Homo sapiens, UniProt Q16850); test: Lanosterol 14α-demethylase activity of CYP51A1 in the reconstituted system; type: biochemical; conditions: for Relative Activity: CYP51A1 0.5 μM, CPR 2.0 μM, lanosterol 50 μM
T2 construct: made in house
T2 sequence (Q16850 1-509): T1 sequence (Q16850 1-509)

[5] = tested on: CYP1A2, CYP3A, CYP2B6, CYP2E1 and CYP2D6; parameters: method as in PMID 28872689, PMID 18191104; conditions: range over CYP1A2, CYP3A; cited from earlier work
CYP2D6 = tested on: CYP2D6; parameters: method as in PMID 32942157; conditions: 20 μM luteolin; cited from earlier work
[6] = 25 °C, Langmuir 1:1 model, n = 3, read-out: koff (dissociation rate constant)
[7] = 25 °C, Langmuir 1:1 model, n = 3, read-out: kon (association rate constant)
[8] = 25 °C, Two state reaction model, n = 3
[9] = concentration-dependent, up to 30 μM

CCCN(CCc1ccc(Cl)c(Cl)c1)CC(O)c1cccnc1 (stereo not drawn) [LK-935, 2-((3,4-Dichlorophenethyl)(Propyl)Amino)-1-(Pyridin-3-Yl)Ethanol]
affinity (human CYP51A1 [1]): submicromolar range

C[C@]12CC[C@H](O)CC1=CC[C@@H]1[C@@H]2CC[C@]2(C)C(c3cccnc3)=CC[C@@H]12 [abiraterone]
Kd (human CYP51A1 [1]): 22 µM

O=c1cc(-c2ccccc2)oc2cc(O)c(O)c(O)c12 [baicalein]
Kd (human CYP51A1 [2]; 25 °C): 12.5 µM
Kd (human CYP51A1 [3]): 8.2 ± 0.4 µM
spectral response in the difference spectrum of CYP51A1 (human CYP51A1 [3]): reverse type I spectral response
IC50 (CYP1A, CYP2B and CYP3A4): 0.5 to 36 µM

O=c1cc(-c2ccccc2)oc2cc(OS(=O)(=O)O)cc(O)c12 [chrysin 7-sulfate]
inhibition effect (CYP2C19): slight inhibition effect
inhibition effect (CYP3A4): slight inhibition effect
IC50 (CYP2C9): 2.7 µM

Clc1ccc(COC(Cn2ccnc2)c2ccc(Cl)cc2Cl)cc1 (stereo not drawn) [econazole]
affinity (human CYP51A1 [1]): submicromolar range

C[C@]12CC[C@H](O)CC1=CC[C@@H]1[C@@H]2CC[C@]2(C)C(n3cnc4ccccc43)=CC[C@@H]12 [galeterone]
Kd (human CYP51A1 [1]): 16 µM

CC(C)=CCC[C@@H](C)[C@H]1CC[C@@]2(C)C3=C(CC[C@]12C)[C@@]1(C)CC[C@H](O)C(C)(C)[C@@H]1CC3 [lanosterol]
koff (human CYP51A1 [2]; [6]): 0.0001 s⁻¹
kon (human CYP51A1 [2]; [7]): 41.4 M⁻¹ s⁻¹
Kd (human CYP51A1 [2]; 25 °C): 2.4 µM

O=c1cc(-c2ccc(O)c(OS(=O)(=O)O)c2)oc2cc(OS(=O)(=O)O)cc(O)c12 [luteolin 7,3′-disulfate]
koff (human CYP51A1 [2]; [6]): 0.00084 s⁻¹
kon (human CYP51A1 [2]; [7]): 294 M⁻¹ s⁻¹
Kd (human CYP51A1 [2]; 25 °C): 2.9 µM
association rate of the CYP51A1 complex compared to lanosterol (human CYP51A1 [2]; relative to complex formation with lanosterol): seven times faster
dissociation rate of the CYP51A1 complex compared to lanosterol (human CYP51A1 [2]; relative to complex with lanosterol): about eight times higher
spectral response in the difference spectrum of CYP51A1 (human CYP51A1 [3]): does not cause changes in the difference spectrum
Relative Activity ([4]; compound 25 μM): 49.9%
inhibition at 25 µM ([4]; compound 25 μM, read-out: level of inhibition): 50.1%
IC50 ([4]; reconstituted system, 5, 10, 25, 50 and 100 μM tested, read-out: apparent IC50): > 25 µM

O=c1cc(-c2ccc(O)c(O)c2)oc2cc(O)cc(O)c12 [luteolin]
koff2 (backward rate constant for CP ↔ CP* transition) (human CYP51A1 [2]; [8]): koff2 (1/s × 10^−4) = 14 ± 2
kon2 (forward rate constant for CP ↔ CP* transition) (human CYP51A1 [2]; [8]): kon2 (1/s × 10^−4) = 33 ± 4
koff (human CYP51A1 [2]; 25 °C, Two state reaction model, n = 3, read-out: koff1 (dissociation rate constant)): 0.019 s⁻¹
kon (human CYP51A1 [2]; 25 °C, Two state reaction model, n = 3, read-out: kon1 (association rate constant)): 282 M⁻¹ s⁻¹
Kd (human CYP51A1 [2]; 25 °C): 20 µM
Kd (human CYP51A1 [3]): 5.1 ± 0.5 µM
spectral response in the difference spectrum of CYP51A1 (human CYP51A1 [3]): reverse type I spectral response
Relative Activity ([4]; compound 25 μM): 92.6%
IC50 [5]: 1.6 to 133 µM
O-demethylation of 3-[2-(N,N-diethyl-N-methyl-ammonium)ethyl]-7-methoxy-4-methylcoumarin inhibited to (CYP2D6): 40%
inhibition in reaction with dextromethorphan (CYP2D6): < 5%

O=c1c(O)c(-c2ccc(O)c(OS(=O)(=O)O)c2)oc2cc(O)cc(O)c12 [quercetin 3′-sulfate]
inhibition effect (CYP2C19; [9]): ≤ 50%
inhibition effect (CYP3A4; [9]): ≤ 50%
